Assay [1] concerns Aβ25–35-induced social memory deficit. The format is in vivo. To be noted: rat, Aβ25–35 15 μg i.c.v., Ilantide-t 10 mg/kg s.c., third trial. How it is done: Aggregates of Aβ25-35 (Bachem AG, Weil am Rhein, Germany) were prepared by incubating the peptides at a concentration of 3 μg/μl in sterile water for 4 days at 37°C. Subsequently, 5 μl of aggregated Aβ25-35 were injected intracerebroventricularly (1.2 μl/min) with a 10-μl Hamilton syringe using the following coordinates: 0.8 mm posterior to the bregma, 1.5 mm lateral to the sagittal suture and 3.8 mm beneath the surface of the brain. The procedure was performed while the animals were under anesthesia (i.p. fentanyl-fluanisone/midazolam at 0.3 ml/100-g animal; that is, 23.6 μg of fentanyl, 0.75 mg of fluanisone and 375 μg midazolam per 100-g animal). Social memory in animals reflects the ability of individuals to recognize conspecifics as familiar or unfamiliar. […] During each trial, the investigative behavior of the adult toward the juvenile (that is, licking, sniffing and chewing the fur of the juvenile) was monitored with a video camera and scored by an observer who was blinded to the treatment of the animals. […] The time spent investigating a novel juvenile (T3) was measured to confirm that the effect seen with the familiar juvenile was specific to cognition. In this case, RRnew was calculated as T3/(T1 + T3).

For assay [2], the system named is collagen-induced arthritis. Put plainly: Collagen-induced arthritis in rats. The format is in vivo. The conditions noted are these: rat, 10 mg/kg s.c. daily dpi 8 to 15, dpi 10 to 16, P < 0.05.
Method: CIA was induced by bovine collagen type II (CII; Sigma-Aldrich) solubilized in 0.05 M acetic acid (2 mg/ml), then emulsified 1:1 with complete Freund’s adjuvant (CFA) (Sigma-Aldrich) that contained 1.0 mg/ml heat-inactivated Mycobacterium tuberculosis. While the animals were under inhalation anesthesia (3% isoflurane; Baxter, Allerød, Denmark), 250 μl of the emulsion that contained 250 μg of CII and 125 μg of M. tuberculosis were injected intradermally at the tail base (day postimmunization 0 (dpi 0)). […] An observer who was blinded to the treatment groups evaluated the severity of arthritis by employing the following grading system: 0 (no redness or swelling of the foot), 1 (slight redness in the foot or redness and swelling in single interphalangeal joints), 2 (moderate swelling and redness in the ankle and metatarsal part of the foot), 3 (marked swelling and redness of the entire foot, with restricted use of the foot during locomotion) and 4 (marked swelling and redness of the entire foot, with no use of the foot during locomotion). […] The differences in the area under the clinical score curve during the period of observation between the control and peptide-treated groups were calculated, with baseline defined as the start of treatment (that is, 0).
Assay [3] has as its system HEK-Blue IL-6 cells (STAT3). Put plainly: IL-6-induced STAT3 activation, SEAP reporter. The format is cell-based. To be noted: 1.2 pM IL-6, 24 hours, SEAP read at 600 nm. How it is done: HEK-Blue IL-1β cells that contained an IL-1β-sensitive reporter (InvivoGen, San Diego, CA, USA) and HEK-Blue IL-6 cells that contained an IL-6-sensitive reporter (InvivoGen) were grown at 37°C with 5% CO2 in Dulbecco’s modified Eagle’s medium (DMEM) supplemented with 5% (vol/vol) fetal calf serum (FCS), 4.5 g/L glucose, 2 mM GlutaMAX medium, 100 U/ml penicillin, 100 μg/ml streptomycin (all obtained from Gibco BRL/Life Technologies, Taastrup, Denmark), 100 μg/ml zeocin, 200 μg/ml hygromycin and 100 μg/ml Normocin (all purchased from InvivoGen).
HEK-Blue IL-6 cells were grown as described above. IL-6 cells allow the monitoring of the activation of the signal transducer and activator of transcription 3 (STAT3) pathway specifically in response to IL-6. They express a STAT3-inducible SEAP reporter gene. For the STAT3 activation assay, the cells were treated with 1.2 pM IL-6 alone or together with various concentrations of Ilantide. TNF-α (1.2 pM) was added as a control ligand for both the NF-κB and STAT3 assays. After 24-hour incubation at 37°C, 150 μl of HEK-Blue cell supernatant were added to each well of a 96-well plate together with 50 μl of QUANTI-Blue (InvivoGen), incubated at 37°C in the dark for 40 minutes and measured in an ELISA reader at 600 nm to determine the expression level of the secreted SEAP.

The next assay has as its target T1, IL-1RI–IL-1β binding (Homo sapiens, UniProt P14778).
T1 construct: purchased R&D Systems
T1 sequence (P14778 18-336 limits assumed): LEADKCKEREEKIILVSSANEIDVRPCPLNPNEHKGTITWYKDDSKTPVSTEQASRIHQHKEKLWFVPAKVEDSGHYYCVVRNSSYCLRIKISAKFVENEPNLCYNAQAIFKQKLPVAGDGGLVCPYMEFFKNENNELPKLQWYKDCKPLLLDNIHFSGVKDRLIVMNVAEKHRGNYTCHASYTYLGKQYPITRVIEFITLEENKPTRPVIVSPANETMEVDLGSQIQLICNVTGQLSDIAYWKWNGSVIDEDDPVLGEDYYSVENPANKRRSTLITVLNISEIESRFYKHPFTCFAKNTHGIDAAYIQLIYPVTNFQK
Put plainly: SPR competition: binding of IL-1RI ectodomain to immobilized IL-1β in the presence of peptide. To be noted: three experiments. How it is done: The binding analysis was performed using a Biacore 2000 instrument (GE Healthcare Life Sciences) that contained 150 mM NaCl as running buffer at 25°C with 10 mM sodium phosphate (pH 7.4). The flow rate was 5 μl/min during immobilization. Ilantide peptide, IL-1β or IL-1Ra was immobilized on a CM4 sensor chip according to the manufacturer’s instructions, after which the recombinant ectodomain of IL-1RI (R&D Systems) was injected. The neural cell adhesion molecule (NCAM) immunoglobulin modules 1 and 2 (Ig1 and Ig2) were used as a negative control protein [9]. The data were analyzed using nonlinear curve-fitting with the manufacturer’s software.
Figure 2 Interaction between Ilantide, interleukin 1β, and interleukin 1 receptor antagonist and soluble IL-1 receptor type I. Binding was studied using surface plasmon resonance analysis. […] Binding is expressed as the response difference between the binding of IL-1 receptor type I (IL-1RI) to the sensor chip with the immobilized peptide, IL-1β, or IL-Ra and a blank sensor chip. […] The results from three experiments are expressed as mean RU ± SEM. **P < 0.01 and ***P < 0.001 compared with binding of IL-1RI alone to IL-1β (one-way analysis of variance followed by the Newman-Keuls post hoc test).

Positions of bridges follow the written chain, without caps; N, C: chain ends. Chains are numbered I, II in the order given. No end group written: not given here.

Take “I: SGRKSSKMQAKK-NH2 / II: SGRKSSKMQAK / III: SGRKSSKMQA / IV: SGRKSSKMQA (amide I:11-IV:C, I:12-II:C, II:11-III:C; C-terminus assumed) [Ilantide-t]”: the “RRnew (recognition ratio with new juvenile)” value in assay [1] is “did not differ from 0.5”. Moreover, the “Severity of CIA (clinical score, area under the curve) versus vehicle” value in assay [2] was “significantly attenuated”. The “Inhibition of STAT3 activation induced by IL-6” value in assay [3] was “did not inhibit”. In addition, on IL-1RI–IL-1β binding, the “Inhibition of binding between IL-1RI and IL-1β” value is listed as “dose-dependently inhibited”.
